This note sets out measurements from ChEMBL document CHEMBL1141774, “Benzopyran, biphenyl, and tetraoxygenated xanthone derivatives from the twigs of Garcinia nigrolineata” (2005).

In brackets after ≈: the same amount, converted by molar mass.

In the experiment the test system is Staphylococcus aureus. The experiment is described as follows: Antibacterial activity against methicillin-resistant Staphylococcus aureus. It is filed as functional.
As a reminder, the MIC is the lowest concentration found to suppress growth. A low value points to inhibition by little substance. Consider `CC(C)=CCc1c(O)cc2oc3c(O)c4c(cc3c(=O)c2c1O)C=CC(C)(C)O4` [LASTIXANTHONE D], for which the lowest concentration to inhibit growth (MIC) was 2 µg/mL (≈ 5.07 µM).

Compound `CC1(C)C=Cc2c(cc(O)c3c(=O)c4cc(O)ccc4oc23)O1` [NIGROLINEAXANTHONE F] returned an MIC of 2 µg/mL (≈ 6.45 µM).

As to `CC(C)=CCc1c(O)cc2oc3c(O)ccc(CCC(C)(C)O)c3c(=O)c2c1O` [NIGROLINEAXANTHONE N], the MIC turned out to be 4 µg/mL (≈ 10 µM).
